{
  "source": "ChEMBL document CHEMBL5465560",
  "about": "“Selectivity Literature for EUbOPEN Chemogenomic Library” (2024)",
  "key": {"[1]": {"biological_target": "Dual specificity protein kinase CLK4 (Homo sapiens, UniProt Q9HAZ1)", "sequence (Q9HAZ1 whole entry, looked up)": "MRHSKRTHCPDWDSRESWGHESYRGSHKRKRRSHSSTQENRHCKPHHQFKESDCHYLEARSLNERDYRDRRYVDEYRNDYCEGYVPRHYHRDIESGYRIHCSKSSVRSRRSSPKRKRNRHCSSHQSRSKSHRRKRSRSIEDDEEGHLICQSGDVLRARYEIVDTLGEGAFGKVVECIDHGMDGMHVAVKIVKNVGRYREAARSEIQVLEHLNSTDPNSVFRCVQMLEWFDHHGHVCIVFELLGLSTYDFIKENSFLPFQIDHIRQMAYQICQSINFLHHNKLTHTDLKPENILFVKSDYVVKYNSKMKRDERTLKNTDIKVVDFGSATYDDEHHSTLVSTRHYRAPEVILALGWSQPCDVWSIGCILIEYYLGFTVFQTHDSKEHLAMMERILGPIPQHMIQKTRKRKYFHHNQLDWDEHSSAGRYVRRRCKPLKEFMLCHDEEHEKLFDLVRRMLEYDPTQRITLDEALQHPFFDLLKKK", "assay": "Selectivity interaction (KinomeScan (DiscoverX)) EUB0001079a CLK4", "conditions": "at 1 µM"}, "[2]": {"biological_target": "T1, Serine/threonine-protein kinase MAK (Homo sapiens) (UniProt P20794)", "T1 sequence (whole entry)": "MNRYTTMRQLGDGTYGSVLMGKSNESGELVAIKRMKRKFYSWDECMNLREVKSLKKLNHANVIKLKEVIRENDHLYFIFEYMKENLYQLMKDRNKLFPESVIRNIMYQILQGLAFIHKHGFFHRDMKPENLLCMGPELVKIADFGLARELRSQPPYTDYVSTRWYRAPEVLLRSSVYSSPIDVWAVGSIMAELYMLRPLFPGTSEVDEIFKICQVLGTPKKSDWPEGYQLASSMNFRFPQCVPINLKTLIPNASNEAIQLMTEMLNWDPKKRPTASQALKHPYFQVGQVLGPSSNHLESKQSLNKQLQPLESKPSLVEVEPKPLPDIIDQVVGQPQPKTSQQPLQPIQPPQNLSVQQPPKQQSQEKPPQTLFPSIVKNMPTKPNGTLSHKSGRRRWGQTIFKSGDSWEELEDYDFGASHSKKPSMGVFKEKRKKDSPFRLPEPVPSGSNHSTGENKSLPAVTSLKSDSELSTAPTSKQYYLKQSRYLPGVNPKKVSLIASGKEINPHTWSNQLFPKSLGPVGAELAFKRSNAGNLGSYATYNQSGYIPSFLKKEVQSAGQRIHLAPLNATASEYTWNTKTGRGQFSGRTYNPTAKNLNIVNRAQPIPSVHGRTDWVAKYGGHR", "assay": "Selectivity interaction (KinomeScan (DiscoverX)) EUB0001079a MAK", "conditions": "at 1 µM"}, "[3]": {"biological_target": "Serine/threonine-protein kinase pim-3 (Homo sapiens) (UniProt Q86V86)", "assay": "Selectivity interaction (KinomeScan (DiscoverX)) EUB0001079a PIM3", "conditions": "at 1 µM"}, "[4]": {"biological_target": "MAP kinase-interacting serine/threonine-protein kinase 2 (Homo sapiens, UniProt Q9HBH9)", "sequence (Q9HBH9 whole entry, looked up)": "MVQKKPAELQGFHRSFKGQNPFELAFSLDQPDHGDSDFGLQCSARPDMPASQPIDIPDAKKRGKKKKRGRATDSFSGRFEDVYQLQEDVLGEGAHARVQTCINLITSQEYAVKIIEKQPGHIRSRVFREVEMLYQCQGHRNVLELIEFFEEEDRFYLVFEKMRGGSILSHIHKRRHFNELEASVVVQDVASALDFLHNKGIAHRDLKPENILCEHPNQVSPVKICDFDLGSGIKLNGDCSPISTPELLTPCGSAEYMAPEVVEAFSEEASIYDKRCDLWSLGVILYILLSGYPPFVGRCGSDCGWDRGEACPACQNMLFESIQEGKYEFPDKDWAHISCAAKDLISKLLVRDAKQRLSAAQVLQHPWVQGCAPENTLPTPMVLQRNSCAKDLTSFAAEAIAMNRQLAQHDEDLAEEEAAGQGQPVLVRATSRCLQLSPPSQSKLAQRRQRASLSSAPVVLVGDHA", "assay": "Selectivity interaction (KinomeScan (DiscoverX)) EUB0001079a MKNK2", "conditions": "at 1 µM"}, "[5]": {"biological_target": "Bromodomain-containing protein 8 (Homo sapiens) (UniProt Q9H0E9)", "assay": "Selectivity interaction (Human bromodomain panel (DSF assay)) EUB0000233b BRD8"}, "[6]": {"biological_target": "T2, Cyclin-dependent kinase 11A (Homo sapiens) (UniProt Q9UQ88)", "T2 sequence (whole entry)": "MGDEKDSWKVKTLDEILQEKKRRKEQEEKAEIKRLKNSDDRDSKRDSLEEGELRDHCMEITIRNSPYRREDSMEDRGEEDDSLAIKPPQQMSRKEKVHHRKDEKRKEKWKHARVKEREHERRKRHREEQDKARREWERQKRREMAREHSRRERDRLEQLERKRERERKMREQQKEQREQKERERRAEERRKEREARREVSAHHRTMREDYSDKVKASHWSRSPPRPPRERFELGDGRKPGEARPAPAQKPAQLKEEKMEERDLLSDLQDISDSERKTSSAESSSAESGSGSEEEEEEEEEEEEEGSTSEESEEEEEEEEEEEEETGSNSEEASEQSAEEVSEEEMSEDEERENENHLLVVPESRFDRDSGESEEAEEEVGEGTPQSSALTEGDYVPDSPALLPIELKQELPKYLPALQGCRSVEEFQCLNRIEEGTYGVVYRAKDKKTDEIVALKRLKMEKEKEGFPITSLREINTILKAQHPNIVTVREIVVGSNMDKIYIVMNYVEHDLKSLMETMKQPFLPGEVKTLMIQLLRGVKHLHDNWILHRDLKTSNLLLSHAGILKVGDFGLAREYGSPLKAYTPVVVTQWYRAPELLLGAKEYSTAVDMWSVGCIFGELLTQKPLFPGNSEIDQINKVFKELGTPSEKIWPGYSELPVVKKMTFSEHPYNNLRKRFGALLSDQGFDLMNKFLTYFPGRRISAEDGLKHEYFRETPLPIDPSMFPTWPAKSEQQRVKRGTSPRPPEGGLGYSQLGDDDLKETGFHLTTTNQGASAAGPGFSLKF", "conditions": "at 10 µM"}, "[7]": {"biological_target": "Dual specificity mitogen-activated protein kinase kinase 2 (Homo sapiens) (UniProt P36507)", "sequence (P36507 whole entry)": "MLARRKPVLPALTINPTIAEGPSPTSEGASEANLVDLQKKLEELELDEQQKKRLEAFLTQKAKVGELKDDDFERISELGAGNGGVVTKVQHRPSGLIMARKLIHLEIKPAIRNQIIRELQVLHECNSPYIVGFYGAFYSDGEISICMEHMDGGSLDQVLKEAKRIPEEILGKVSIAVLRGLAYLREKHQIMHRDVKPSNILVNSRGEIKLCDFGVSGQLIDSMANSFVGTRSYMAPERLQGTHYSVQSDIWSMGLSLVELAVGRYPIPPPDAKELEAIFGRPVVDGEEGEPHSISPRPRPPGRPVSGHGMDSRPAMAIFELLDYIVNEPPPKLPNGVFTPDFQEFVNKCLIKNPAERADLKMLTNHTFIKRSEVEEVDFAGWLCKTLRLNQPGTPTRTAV", "assay": "Selectivity interaction (ActivX KiNativ screen (kinase selectivity in THP-1 cell lysates)) EUB0000639a MAP2K2", "type": "subcellular", "conditions": "lysate, at 0.04 µM"}, "[8]": {"biological_target": "Tyrosine-protein kinase Fyn (Homo sapiens) (UniProt P06241)", "sequence (P06241 2-537 limits assumed)": "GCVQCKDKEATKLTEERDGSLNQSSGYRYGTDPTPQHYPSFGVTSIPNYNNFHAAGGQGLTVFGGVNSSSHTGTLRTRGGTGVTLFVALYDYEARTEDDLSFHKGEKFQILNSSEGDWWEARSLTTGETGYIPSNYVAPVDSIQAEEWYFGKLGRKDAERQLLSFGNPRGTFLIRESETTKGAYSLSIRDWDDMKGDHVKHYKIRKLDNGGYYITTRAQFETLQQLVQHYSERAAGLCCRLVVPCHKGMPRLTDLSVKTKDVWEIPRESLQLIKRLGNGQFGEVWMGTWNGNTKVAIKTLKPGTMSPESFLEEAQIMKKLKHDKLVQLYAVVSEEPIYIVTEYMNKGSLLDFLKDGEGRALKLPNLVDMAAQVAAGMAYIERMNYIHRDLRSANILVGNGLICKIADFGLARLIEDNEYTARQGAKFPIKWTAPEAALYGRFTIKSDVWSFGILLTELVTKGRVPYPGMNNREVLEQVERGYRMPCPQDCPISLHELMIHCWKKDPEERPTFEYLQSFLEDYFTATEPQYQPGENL", "assay": "Selectivity interaction (ActivX KiNativ screen (kinase selectivity in THP-1 cell lysates)) EUB0000639a FYN", "type": "subcellular", "conditions": "lysate, at 0.04 µM"}, "[9]": {"biological_target": "Death-associated protein kinase 3 (Homo sapiens) (UniProt O43293)", "sequence (O43293 whole entry, looked up)": "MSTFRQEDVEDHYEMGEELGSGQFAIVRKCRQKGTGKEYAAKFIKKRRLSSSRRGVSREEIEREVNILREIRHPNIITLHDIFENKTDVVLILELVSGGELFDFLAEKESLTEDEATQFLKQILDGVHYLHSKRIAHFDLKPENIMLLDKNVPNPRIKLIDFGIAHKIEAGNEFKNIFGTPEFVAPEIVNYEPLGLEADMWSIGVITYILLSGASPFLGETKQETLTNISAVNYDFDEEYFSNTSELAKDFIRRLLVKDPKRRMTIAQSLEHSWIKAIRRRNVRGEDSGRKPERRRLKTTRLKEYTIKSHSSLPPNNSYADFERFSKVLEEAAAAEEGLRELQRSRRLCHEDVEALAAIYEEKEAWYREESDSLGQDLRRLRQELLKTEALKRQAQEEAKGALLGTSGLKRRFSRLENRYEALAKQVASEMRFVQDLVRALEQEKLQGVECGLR", "conditions": "at 10 µM"}, "[10]": {"biological_target": "NT-3 growth factor receptor (Homo sapiens, UniProt Q16288)", "assay": "Selectivity interaction (KinomeScan (DiscoverX)) EUB0000618a NTRK3", "conditions": "at 10 µM"}, "[11]": {"biological_target": "Serine/threonine-protein kinase WNK2 (Homo sapiens) (UniProt Q9Y3S1)", "assay": "Selectivity interaction (ActivX KiNativ screen (ex vivo kinase selectivity in human PBMCs)) EUB0001619a WNK2", "type": "cell-based", "conditions": "PBMC, at 1 µM"}, "[12]": {"biological_target": "RAC-gamma serine/threonine-protein kinase (Homo sapiens, UniProt Q9Y243)", "sequence (Q9Y243 whole entry)": "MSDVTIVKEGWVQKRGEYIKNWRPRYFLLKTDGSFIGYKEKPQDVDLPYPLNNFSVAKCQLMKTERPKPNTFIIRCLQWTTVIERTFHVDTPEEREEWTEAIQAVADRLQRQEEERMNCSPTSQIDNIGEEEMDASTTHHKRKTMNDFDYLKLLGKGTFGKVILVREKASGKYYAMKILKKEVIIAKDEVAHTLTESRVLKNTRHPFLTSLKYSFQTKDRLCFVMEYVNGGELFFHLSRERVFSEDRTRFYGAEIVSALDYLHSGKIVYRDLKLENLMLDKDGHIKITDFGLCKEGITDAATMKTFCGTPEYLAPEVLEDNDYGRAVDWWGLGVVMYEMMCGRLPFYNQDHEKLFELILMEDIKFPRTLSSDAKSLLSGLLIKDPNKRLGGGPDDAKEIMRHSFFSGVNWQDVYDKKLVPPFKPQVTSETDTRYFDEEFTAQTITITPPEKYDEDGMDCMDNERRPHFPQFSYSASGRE", "assay": "Selectivity interaction (KinomeScan (DiscoverX)) EUB0000655a AKT3", "conditions": "at 10 µM"}, "[13]": {"biological_target": "Cyclin-dependent kinase 18 (Homo sapiens) (UniProt Q07002)", "sequence (Q07002 whole entry)": "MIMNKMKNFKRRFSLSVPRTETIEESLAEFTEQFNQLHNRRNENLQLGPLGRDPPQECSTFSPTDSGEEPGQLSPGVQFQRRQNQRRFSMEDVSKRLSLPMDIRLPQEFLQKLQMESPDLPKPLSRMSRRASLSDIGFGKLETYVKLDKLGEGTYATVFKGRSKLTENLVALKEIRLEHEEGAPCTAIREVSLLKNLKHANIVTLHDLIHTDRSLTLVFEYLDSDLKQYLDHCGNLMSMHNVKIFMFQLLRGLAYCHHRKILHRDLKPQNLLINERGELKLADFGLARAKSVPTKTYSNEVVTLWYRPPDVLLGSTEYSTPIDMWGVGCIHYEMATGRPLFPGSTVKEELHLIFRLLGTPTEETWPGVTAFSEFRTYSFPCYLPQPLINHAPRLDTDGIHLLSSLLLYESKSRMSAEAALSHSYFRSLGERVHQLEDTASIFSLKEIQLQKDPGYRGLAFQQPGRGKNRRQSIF", "assay": "Selectivity interaction (KinomeScan (DiscoverX)) EUB0000695a CDK18", "conditions": "at 100 nM"}, "[14]": {"biological_target": "T3, Phosphatidylinositol 5-phosphate 4-kinase type-2 beta (Homo sapiens) (UniProt P78356)", "T3 sequence (whole entry)": "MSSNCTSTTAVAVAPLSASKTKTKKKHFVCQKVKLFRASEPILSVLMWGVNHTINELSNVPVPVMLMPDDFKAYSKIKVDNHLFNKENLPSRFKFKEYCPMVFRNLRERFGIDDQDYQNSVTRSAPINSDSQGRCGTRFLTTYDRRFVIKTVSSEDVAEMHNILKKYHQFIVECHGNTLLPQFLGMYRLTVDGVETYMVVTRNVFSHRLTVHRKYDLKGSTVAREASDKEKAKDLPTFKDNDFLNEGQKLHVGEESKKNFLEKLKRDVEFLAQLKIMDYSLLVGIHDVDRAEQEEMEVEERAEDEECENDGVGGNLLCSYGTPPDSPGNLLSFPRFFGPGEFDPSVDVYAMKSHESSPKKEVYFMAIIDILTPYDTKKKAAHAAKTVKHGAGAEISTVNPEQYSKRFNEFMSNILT", "assay": "Selectivity interaction (KinomeScan (DiscoverX)) EUB0000607a PIP4K2B", "conditions": "at 10 µM"}, "[15]": {"biological_target": "Serine/threonine-protein kinase mTOR (Homo sapiens, UniProt P42345)", "assay": "Selectivity interaction (KinomeScan (DiscoverX)) EUB0000607a MTOR", "conditions": "at 10 µM"}, "[16]": {"test_system": "Tyrosine-protein kinase ABL1 (Homo sapiens), P00519 [F317I]", "sequence (P00519 whole entry F317I)": "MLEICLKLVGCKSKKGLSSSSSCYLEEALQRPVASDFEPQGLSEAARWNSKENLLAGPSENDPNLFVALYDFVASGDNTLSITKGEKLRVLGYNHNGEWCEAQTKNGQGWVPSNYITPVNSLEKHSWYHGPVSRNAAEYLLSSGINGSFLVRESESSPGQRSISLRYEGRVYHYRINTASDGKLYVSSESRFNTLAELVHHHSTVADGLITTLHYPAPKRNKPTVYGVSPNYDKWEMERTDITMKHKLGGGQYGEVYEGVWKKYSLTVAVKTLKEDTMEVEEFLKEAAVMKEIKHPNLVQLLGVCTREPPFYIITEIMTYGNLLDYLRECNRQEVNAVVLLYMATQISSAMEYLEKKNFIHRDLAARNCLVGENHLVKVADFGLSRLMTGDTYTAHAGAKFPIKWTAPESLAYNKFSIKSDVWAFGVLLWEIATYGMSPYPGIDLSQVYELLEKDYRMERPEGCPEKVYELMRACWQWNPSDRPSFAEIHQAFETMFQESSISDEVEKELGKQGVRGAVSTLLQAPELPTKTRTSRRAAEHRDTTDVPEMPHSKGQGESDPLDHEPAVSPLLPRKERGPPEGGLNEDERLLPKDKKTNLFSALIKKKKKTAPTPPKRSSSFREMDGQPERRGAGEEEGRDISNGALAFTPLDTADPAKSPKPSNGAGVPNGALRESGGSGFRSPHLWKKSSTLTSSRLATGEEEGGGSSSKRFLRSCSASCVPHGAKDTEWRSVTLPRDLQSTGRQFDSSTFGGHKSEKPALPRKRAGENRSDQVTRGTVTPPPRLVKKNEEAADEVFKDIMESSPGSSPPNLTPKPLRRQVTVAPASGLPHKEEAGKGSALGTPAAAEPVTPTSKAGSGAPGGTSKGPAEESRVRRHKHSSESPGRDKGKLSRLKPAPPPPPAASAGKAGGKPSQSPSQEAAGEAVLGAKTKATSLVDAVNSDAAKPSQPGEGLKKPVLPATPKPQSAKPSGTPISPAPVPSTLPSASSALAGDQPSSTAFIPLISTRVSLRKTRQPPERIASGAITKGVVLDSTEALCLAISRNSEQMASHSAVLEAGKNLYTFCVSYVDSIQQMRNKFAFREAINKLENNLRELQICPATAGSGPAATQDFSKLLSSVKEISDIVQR", "assay": "Selectivity interaction (KinomeScan (DiscoverX)) EUB0000607a ABL1", "conditions": "at 10 µM"}, "[17]": {"biological_target": "Phosphatidylinositol 4-kinase beta (Homo sapiens, UniProt Q9UBF8)", "assay": "Selectivity interaction (Adapta Assay) EUB0001632a PI4KB", "conditions": "at 10 µM"}},
  "data": [
    {"smiles": "Nc1cnc(N2CCc3cc(S(=O)(=O)Nc4c(F)cc(Cl)cc4F)cc(N4CCCC4=O)c32)nc1", "note": "[TP-020n]", "values": [
      {"measurement": "% of control", "setting": "[1]", "result": 89, "unit": "%"},
      {"measurement": "% of control", "setting": "[2]", "result": 96, "unit": "%"},
      {"measurement": "% of control", "setting": "[3]", "result": 98, "unit": "%"},
      {"measurement": "% of control", "setting": "[4]", "result": 100, "unit": "%"}
    ]},
    {"smiles": "CN(C)CCCOc1ccc(-c2cc(NCCCn3cccn3)nc(S(C)(=O)=O)n2)cc1", "values": [
      {"measurement": "dTM", "setting": "[5]", "result": "< 2", "unit": "K"}
    ]},
    {"smiles": "CCN(CC)CCCCNc1ncc2cc(-c3cc(OC)cc(OC)c3)c(NC(=O)NC(C)(C)C)nc2n1", "values": [
      {"measurement": "% of control", "setting": "[6]", "result": 100, "unit": "%"}
    ]},
    {"smiles": "CC[C@@H]1[C@H](F)C(=O)N[C@@H]1COc1nccc2cc(C(N)=O)c(OC)cc12", "note": "[ZIMLOVISERTIB]", "values": [
      {"measurement": "% of inhibition", "setting": "[7]", "result": -38.8, "unit": "%"},
      {"measurement": "% of inhibition", "setting": "[8]", "result": -0.2, "unit": "%"}
    ]},
    {"smiles": "COCC(=O)NC/C=C/c1ccc2ncnc(Nc3ccc(Oc4ccc(C)nc4)c(C)c3)c2c1", "note": "[CP-724714]", "values": [
      {"measurement": "% of control", "setting": "[9]", "result": 96, "unit": "%"}
    ]},
    {"smiles": "O[C@H]1CC[C@H](Nc2ncc3nc(Nc4c(F)cc(F)cc4F)n([C@H]4CCOC4)c3n2)CC1", "values": [
      {"measurement": "% of control", "setting": "[10]", "result": 100, "unit": "%"}
    ]},
    {"smiles": "N#Cc1cccc(-c2c[nH]c3ncnc(N4CCOCC4)c23)c1", "values": [
      {"measurement": "% of inhibition", "setting": "[11]", "result": -1, "unit": "%"}
    ]},
    {"smiles": "CN(C)CCOc1ccc(-c2nc(-c3ccncc3)c(-c3ccc4c(c3)CC/C4=N\\O)[nH]2)cc1", "values": [
      {"measurement": "% of control", "setting": "[12]", "result": 97, "unit": "%"}
    ]},
    {"smiles": "Cc1cc(F)c(C(=O)Nc2cccc(-c3nncn3C(C)C)n2)cc1-n1cnc(C2CC2)c1", "values": [
      {"measurement": "% of control", "setting": "[13]", "result": 91, "unit": "%"}
    ]},
    {"smiles": "CNC(=O)Nc1ccc(-c2nc(N3CC4CCC(C3)O4)c3cnn(C4CCC5(CC4)OCCO5)c3n2)cc1", "values": [
      {"measurement": "% of control", "setting": "[14]", "result": 100, "unit": "%"},
      {"measurement": "% of control", "setting": "[15]", "result": 5.7, "unit": "%"},
      {"measurement": "% of control", "setting": "[16]", "result": 100, "unit": "%"}
    ]},
    {"smiles": "Cn1cc(-n2cnc3c(NCc4nc5cc(Cl)c(Cl)cc5[nH]4)nc(N4CCOCC4)nc32)cn1", "values": [
      {"measurement": "% of inhibition", "setting": "[17]", "result": -10.8, "unit": "%"}
    ]}
  ]
}
